{
  "source": "patent US20210244720A1",
  "about": "“Therapeutic Tyrosine Kinase Inhibitors for Relapsing Multiple Sclerosis (RMS)” (Genzyme Corporation, priority 2020, published 2021)",
  "tested_on": "RGS1 and BTK-dependent gene signature in primary mouse microglial cells",
  "details": "2.5 μM, IgG 50 μg/mL, 24 h, FPKM",
  "source_text": "Primary cultures of microglia were obtained from brains of C57BL/6 postnatal mice. The mice were anesthetized with CO2 and subsequently decapitated with sterilized scissors. Brains were harvested and meninges were removed. The brains were placed in ice cold complete DMEM/F12 medium and kept on ice until processing.\nThe brains were removed from the medium by filtering through a 40 μm cell strainer. […] The dissociation reaction was quenched with an equal volume of complete DMEM/F12. The tissue was centrifuged at 300×g for 7 minutes. The tissue pellet was washed 3 times with complete DMEM/F12, centrifuged at 300×g for 7 minutes. After the final wash, tissue pellet was re-suspended in complete DMEM/F12 (˜1 mL/brain), triturated until no chunks are visible, then filtered through a 70 μm cell strainer. […]\nThe single cell suspensions were filtered through 70 μm cell strainers, centrifuged at 200×g for 6 minutes, and re-suspended at 1×10^8 cells/mL in separation media. […] After the last wash, the labeled CD11b+ microglia cells were resuspended in serum free NbActiv1 media, counted and re-suspended at the desired concentration. […]\nAnalysis of the RNASeq library data was conducted within Omicsoft's Array Studio platform following a standard RNAseq protocol. In general, the sequencing reads were quality checked and the samples were mapped to the mouse mm10 reference genome using the ENSEMBL.R89 gene model. […]",
  "data": [
    {"smiles": "C=CC(=O)N1CCC[C@@H](n2c(=O)n(-c3ccc(Oc4ccccc4)cc3)c3c(N)nccc32)C1", "note": "[the BTK inhibitor, (R)-1-(1-acryloylpiperidin-3-yl)-4-amino-3-(4-phenoxyphenyl)-1H-imidazo[4,5-c]pyridin-2(3H)-one]", "values": [
      {"measurement": "RGS1 mRNA expression upregulated with IgG treatment", "result": "blocked"}
    ]}
  ]
}
